According to US20160030369A1, “FKBP52 TARGETING AGENT PHARMACEUTICAL COMPOSITIONS” (THE UNITED STATES OF AMERICA AS REPRESENTED BY THE …, priority 2013, published 2016):
Converted amounts (≈) assume the structure as drawn.

Columns and labels:
[1] = Short-term (bench-top) and frozen storage stability of MJC13 in rat plasma and rat urine; assay type: in vitro ADME
Method: Short-term stability (bench-top stability) of MJC13 in rat plasma and rat urine were evaluated by analyzing triplicates of QC samples at low, medium, and high concentrations. Plasma samples were removed from frozen storage (−20° C.) and remained on the bench-top for 2, 4, or 6 hours. All of those samples were compared with freshly prepared samples at the same concentrations. […] Another set of plasma samples were stored at −80° C. for 7 days.
The stability of MJC13 in rat urine was conducted in the same fashion as in rat plasma.

[2] = Processed sample (autosampler) stability of MJC13 rat plasma and urine extracts; assay type: physicochemical; settings: for average recoveries: acetonitrile with IS; for recoveries: acetonitrile without IS
Method: Processed sample stability (on-instrument or autosampler stability) of MJC13 rat plasma extracts and rat urine extracts were evaluated by analyzing QC samples at low, medium, and high concentrations. Two sets of plasma samples were extracted with acetonitrile with and without IS, respectively. The plasma extracts were kept in the autosampler for 2, 4, or 6 hours, before injecting into the LC-MS/MS. All of those samples were compared with freshly prepared samples at the same concentrations.

[3] = Rat plasma protein binding by ultrafiltration; assay type: in vitro ADME; settings: 37° C.
Method: In vitro rat plasma samples of MJC13 were prepared by diluting the stock solution with acetonitrile and spiking in rat plasma at five different concentrations: 100, 500, 1000, 2000 and 5000 ng/mL to approximate the plasma concentrations of MJC13 in rats after 2 mg/kg intravenous bolus dosing. The plasma was incubated at 37° C. for 1 hours before being transferred to Amicon Ultra-0.5 mL Centrifugal Filters (EMD Millipore Corporation, Billerica, Mass.) for ultrafiltration at 3000 rpm for 10 minutes. Filtrate and nonfiltrate concentrations were determined by LC-MS/MS. The fraction unbound, fu, was determined as Eq. 4:
where Cu is the unbound concentration and Ct is the total concentration.

[4] = Solubility of MJC13 in 50% (w/v) HP-β-CD aqueous solution; assay type: physicochemical
Method: An excess amount of MJC13 was added to a sealed glass vial (2 ml) containing saturated (50% w/v) 2-hydroxypropyl-β-cyclodextrin (HP-β-CD) aqueous solution. The vial was shaken at room temperature for 72 hours. Thereafter, the solution was centrifuged, filtered through a 0.2 μm membrane and analyzed for MJC13 by the LC/MS/MS method of Example 1. Experiments were conducted in triplicate. […] It is believed that the resulting pharmaceutical composition has improved biocompatibility because it lacks TWEEN 80 (polysorbate 80).

[5] = rat plasma extract, autosampler 2 hours
[6] = rat plasma extract, autosampler 4 hours
[7] = rat plasma extract, autosampler 6 hours
[8] = rat urine extract, autosampler 2 hours
[9] = rat urine extract, autosampler 4 hours
[10] = rat urine extract, autosampler 6 hours

## O=C(Nc1cccc(Cl)c1Cl)C1CCCCC1 [MJC13]
[1]; rat plasma, bench-top, 2 hours
  average MJC13 amount remaining: 98.6±1.7%
[1]; rat plasma, bench-top, 4 hours
  average MJC13 amount remaining: 97.6±2.0%
[1]; rat plasma, bench-top, 6 hours
  average MJC13 amount remaining: 97.4±1.2%
[1]; rat plasma, stored at −80° C. for 7 days
  average recoveries: 96.4±1.4%
[1]; rat urine, bench-top, 2 hours
  average MJC13 amount remaining: 97.9±2.5%
[1]; rat urine, bench-top, 4 hours
  average MJC13 amount remaining: 99.1±1.9%
[1]; rat urine, bench-top, 6 hours
  average MJC13 amount remaining: 96.7±2.8%
[1]; rat urine, stored at −80° C. for 7 days
  average MJC13 amount remaining: 95.9±2.7%
[2]; [5]
  average recoveries: 97.6±1.3%
  recoveries: 96.1±1.3%
[2]; [6]
  average recoveries: 98.3±1.5%
  recoveries: 97.6±1.1%
[2]; [7]
  average recoveries: 96.7±0.7%
  recoveries: 97.7±2.4%
[2]; [8]
  average recoveries: 95.8±3.2%
  recoveries: 97.4±2.2%
[2]; [9]
  average recoveries: 98.6±2.5%
  recoveries: 97.1±1.9%
[2]; [10]
  average recoveries: 97.9±1.7%
  recoveries: 96.4±3.3%
[3]; 100 ng/mL
  fraction bound at 1 h, 100 ng/mL: 0.981 ± 0.015
[3]; 500 ng/mL
  fraction bound at 1 h, 500 ng/mL: 0.976 ± 0.027
[3]; 1000 ng/mL
  fraction bound at 1 h, 1000 ng/mL: 0.996 ± 0.017
[3]; 2000 ng/mL
  fraction bound at 1 h, 2000 ng/mL: 0.972 ± 0.028
[3]; 5000 ng/mL
  fraction bound at 1 h, 5000 ng/mL: 0.979 ± 0.024
[4]; 50% (w/v) HP-β-CD aqueous solution, aqueous with cosolvent or surfactant or cyclodextrin, thermodynamic from solid, room temperature, 72 hours
  solubility at 72 h: 2600 ± 300 µg/mL (≈ 9.55 mM)
[4]; 50% (w/v) HP-β-CD solution vs pure water
  increase of solubility compared to MJC13 itself in pure water: 10,000 fold
